# Measured values as given in EP4311544A1, “COMPOUNDS USEFUL AGAINST JELLYFISH STINGS” (Isdin, S. A., priority 2022, dated 2024).
# Assays:
# [1] = system: P. noctiluca; experiment: Tentacle Skin Blood Agarose Assay (TSBAA): venom load as hemolytic area after natural stimulation of nematocyst discharge; type: cell-based; settings: for discharge of nematocysts: summary statement on the results of Examples 1 and 2
# Description: (§1) Jellyfish cultures: Jellyfish were cultivated by laboratory conditions in Loro Parque aquarium (Tenerife, Spain). The P. noctiluca adult individuals were breeding in kreisels tanks with a continuous water renewal, 33-35‰ salinity, 22°C temperature and light cycle of 12h light/12h dark. Individuals were daily fed with Artemia sp. nauplii, small pieces of the jellyfish Aurelia sp., eggs of Merluccius and Parapenaeus longirostris.
# Briefly, an agarose gel preparation incorporating sheep red blood cells (SRBCs) (Thermo Fisher Scientific) was used covered by a thin tissue of pig intestine to simulate the effect of the human skin barrier.
# A solution of 4% low melting point agarose (INVITROGEN ™ LMP Agarose) in phosphate buffered saline (PBS) (SIGMA) was prepared and cooled to room temperature for a few minutes. The SRBCs were centrifuged and resuspended in PBS until a final concentration of 2% was obtained. Equal volumes of both preparations were mixed and poured onto a glass surface with a mold (18x7.5 cm) and allowed to cool to room temperature. Once the agarose with SRBCs was set, rectangles were cut and placed on slides and kept at 4 °C in a humidification chamber (maximum 72 hours until use).
# Pig small intestine tissue was washed in a 50 mM saline solution and then cut in rectangular sections. The sections were sterilized in a disinfecting solution consisting of 87% 110 mM saline, 10% ethanol (PANREAC, ethanol 96%) and 3% hydrogen peroxide for 3 hours, after which they were left in physiological serum overnight. The next day, the sections were stretched on a glass surface and allowed to dry for a few minutes in the open air. The pretreated sections of the pig small intestine were placed on the SRBC agarose rectangles.
# Cutting tentacles of the same size is a complicated process due to the contraction and expansion of the tentacles after their manipulation. In order to control the sting area, we design plastic molds obtained through a 3D printer.
# Tentacle pieces of approximately 3 cm long were incubated on reductor or inhibitory solutions (Method 3) for 5 minutes. Consecutively, the agarose rectangles were stung by a sting diameter of 57,35 mm^2 for 1 minute. A weight of 0,66 g was applied to ensure the contact between the tentacle and the skin. After the sting process, the plastic molds and the intestine sections were removed and the SRBC's agarose rectangles were stored in the humidification chamber at room temperature. After a period of 22 hours, images of the hemolytic areas were obtained with a camera. Hemolytic areas were calculated using the Fiji version of ImageJ software (J. Schindelin et al., Fiji: an open-source platform for biological-image analysis. Nature methods, 2012, vol. 9, pp. 676-682). Table 2. Inhibitory efficacy on the venom load to P. noctiluca.
# [2] = system: P. noctiluca; experiment: Tentacle Solution Assay (TSA): inhibition of chemically stimulated nematocyst discharge; type: cell-based; parameters: key to Inhibitory effect (TSA) using 5% acetic acid as chemical stimulator Discharge: 0: no discharge was observed; +: low discharge of nematocysts; ++: medium discharge of nematocysts; +++: high discharge of nematocysts; key to Inhibitory effect (TSA) using 5% acetic acid as chemical stimulator Effect: Neutral effect solution: nematocysts were not activated after the incubation in the first solution but were activated by the subsequent chemical stimulation with 5% acetic acid solution; Reductor effect solution: nematocysts were not activated after the incubation in the first solution, but some isolated nematocysts discharge was observed activated by the subsequent chemical stimulation with 5% acetic acid solution; Inhibitory effect solution: nematocysts were not activated after the incubation in the first solution or by the subsequent chemical stimulation with 5% acetic acid solution; settings: tentacle pieces incubated 5 minutes in 3 ml solution, then 15 µl of 5% acetic acid
# Description: as §1
# Tentacles pieces of approximately 3 cm long were transferred to slides ([…]). The samples were observed under the light microscope in order to ensure their integrity. Subsequently, tentacles were incubated on microwells with 3 ml of each solution for 5 minutes. In order to know the inhibitory effect, the neutral solutions were chemically stimulated by means of 15 µl of 5% acetic acid solution in distilled water (an activator solution per se).
# The nematocysts response was classified qualitatively in four categories in accordance with Pyo et al. (2016): • 1. 0: no discharge was observed; • 2. +: low discharge of nematocysts; • 3. ++: medium discharge of nematocysts; • 4. +++: high discharge of nematocysts.
# The effect was classified in one of three categories: • 1. Neutral effect solution: nematocysts were not activated after the incubation in the first solution but were activated by the subsequent chemical stimulation with 5% acetic acid solution; • 2. Reductor effect solution: nematocysts were not activated after the incubation in the first solution, but some isolated nematocysts discharge was observed activated by the subsequent chemical stimulation with 5% acetic acid solution; • 3. Inhibitory effect solution: nematocysts were not activated after the incubation in the first solution or by the subsequent chemical stimulation with 5% acetic acid solution. Table 1. Inhibitory efficacy on the nematocyst discharge in P. noctiluca.
Compound,discharge of nematocysts [1],Inhibitory effect (TSA) using 5% acetic acid as chemical stimulator Discharge [2],Inhibitory effect (TSA) using 5% acetic acid as chemical stimulator Effect [2],"Venom load - Hemolytic area (%) ([1]; tentacles incubated 5 minutes in solution, sting 1 minute through pig intestine on sheep red blood cell agarose, read after 22 hours)",% Inhibitory ([1]; {})
CC(C)(C)C1CCC(O)CC1 (stereo not drawn) [4-tert-butyl cyclohexanol],significantly reduces,–,–,–,–
"CC(=O)O [5% Acetic acid solution, acetic acid]",–,+++,Activator,–,–
"CC(O)CCO (stereo not drawn) [100% Butylene glycol, butylene glycol]",–,+,Reductor,26.54 ± 19.66%,56.33%
"CCO [100% Ethanol, ethanol]",–,++,Neutral/Reductor,–,–
"CC(O)CO (stereo not drawn) [100% Propylene glycol, propylene glycol]",–,+,Reductor,–,–
"O=C(CO)c1ccccc1 [HAP, hydroxy acetophenone]",significantly reduces,–,–,–,–
